Experimental data taken from US9370511B2, “Morphinan-derivatives for treating diabetes and related disorders” (priority 2011, dated 2016).
Entries after “also recorded” stand apart in the source; their conditions may differ.

How the values were obtained:
diabetics = conditions: long-term experience; cited from earlier work
[1] = system: male subjects with type 2 diabetes mellitus; assay: Clinical trial, oral single dose followed by oral glucose tolerance test (OGTT); type: in vivo, human
Description: The study was designed as a randomized, double-blind, placebo-controlled crossover study to investigate the glucose lowering effect of oral single doses of DXM 270 mg (FIG. 10) and DXM 60 mg (FIG. 11) vs. placebo in subjects with T2DM following an oral glucose tolerance test (OGTT). DXM 270 mg, DXM 60 mg or placebo was administered orally at 0 minutes. OGTT was started at 60 minutes (75 g glucose orally). Blood glucose levels were measured at the indicated times. n=20 male with T2DM on a stable regimen of metformin monotherapy, between 45 and 70 years of age, with a BMI between 25 and 35 kg/m2, HbA1c between 7 and 8%. Student's t-test. *p=0.01, **p<0.001All values are means±SD.

[2] = system: db/db mouse (an animal model for human type 2 diabetes mellitus); assay: Long-term treatment of db/db mice with dextromethorphan in drinking water; type: in vivo
Excerpt: Therefore, long-term treatment with dextromethorphan is beneficial for beta cell function and blood glucose control in a mouse model for human type 2 diabetes mellitus.

[3] = system: children with severe bacterial meningitis; conditions: 36 mg kg^−1 day^−1; two children, also on glucocorticoids; cited from earlier work
[4] = system: painful diabetic neuropathy; conditions: in vivo; cited from earlier work
mouse pancreatic islets = assay: Insulin secretion from mouse pancreatic islets at low and high glucose; type: cell-based; conditions: comparison of DXO, DXM and LEV
Description: (§1) Mouse pancreatic islets were treated with a low, non-stimulatory glucose concentration (2.5 mM) or a high, stimulatory glucose concentration (25 mM) in the absence or presence of 1 μM or 10 μM dextrorphan. Insulin secretion was determined as percent of […] glucose control, and values are expressed as means+/−SD (N=3). The asterisks (*) indicate p values smaller than 0.05 in Student's t-tests.
Low Glucose (2.5 mM); High Glucose (25 mM); p<0.05 (Student's t-Test), N=3.
Example 1 was repeated in order to compare dextrorphan, dextromethorphan, and levorphanol with one another.

human pancreatic islets = assay: Insulin secretion from human pancreatic islets at low and high glucose; type: cell-based; conditions: 1 μM; low glucose 2 mM vs high glucose 20 mM
Description: as §1
Example 1 was repeated but the mouse pancreatic islets were replaced by human pancreatic islets.
Low Glucose (2 mM); High Glucose (20 mM); the asterisks (*) indicate p values smaller than 0.05 in Student's t-tests.

[5] = 3 mg/ml in drinking water, 8 weeks, compared to low dose 1 mg/ml

## CN(C)C(=N)N=C(N)N [metformin]
diabetics
  reduction of diabetes complications and mortality: about 30%

## COc1ccc2c(c1)[C@]13CCCC[C@@H]1[C@H](C2)N(C)CC3 [dextromethorphan, (+)-3-methoxy-17-methyl-(9α,13α,14α)-morphinan]
[1]; 60 mg oral single dose vs placebo
  blood glucose levels during oral glucose tolerance test: too low a concentration
[1]; 270 mg oral single dose
  starving blood glucose levels: does not affect starving blood glucose levels
[1]; 270 mg oral single dose vs placebo
  blood glucose levels during oral glucose tolerance test: significantly lowers blood glucose levels after glucose uptake
[1]; 20 patients, oral single doses
  hypoglycemic events: no hypoglycemic events were observed
[2]; 1 mg/ml in drinking water
  effectiveness of the low dose: ineffective
[2]; [5]
  beta cell area: significantly larger
  insulin content of islets: significantly increased; also recorded: contained significantly more insulin
  starving blood glucose levels: significantly improved starving blood glucose levels; also recorded: lower blood glucose levels or better blood glucose control
[3]
  serious adverse event: developed an insulin dependent diabetes mellitus
[4]
  efficacy in painful diabetic neuropathy: effective in treating painful diabetic neuropathy
Mouse pancreatic islets
  glucose-dependent insulin secretion, compared with levorphanol: significantly more effective in inducing glucose-dependent insulin secretion than levorphanol
Mouse pancreatic islets; listed as DXM
  glucose-dependent insulin secretion, compared with levorphanol: increase glucose-dependent insulin secretion from pancreatic islets to a significantly larger extent compared to LEV

## CN1CC[C@]23CCCC[C@H]2[C@H]1Cc1ccc(O)cc13 [levorphanol]
Mouse pancreatic islets
  glucose-dependent insulin secretion, compared with levorphanol: not the levorotatory (−) stereoisomer that mainly targets opioid receptors, increases glucose-dependent insulin secretion to a large extent

## COc1ccc(Cl)cc1C(=O)NCCc1ccc(S(=O)(=O)NC(=O)NC2CCCCC2)cc1 [glibenclamide]
Human pancreatic islets
  insulin secretion, basal and glucose-stimulated: increases both basal (2 mM glucose) and glucose-stimulated (20 mM glucose) insulin secretion
